Like-named read-outs stand apart in the source and are kept apart here.
Experiments:
[1] = target: T1, complement C5a receptor 1 (C5aR1) (Homo sapiens, UniProt P21730); assay: β-arrestin recruitment via C5aR1 activation in live CHO-K1 cells (PathHunter), agonist mode; type: cell-based
T1 construct: β-galactosidase fragment (PathHunter enzyme complementation); host or cells: CHO-K1 (PathHunter CHO-K1 C5aR1 β-arrestin cell line)
T1 sequence (P21730 1-350): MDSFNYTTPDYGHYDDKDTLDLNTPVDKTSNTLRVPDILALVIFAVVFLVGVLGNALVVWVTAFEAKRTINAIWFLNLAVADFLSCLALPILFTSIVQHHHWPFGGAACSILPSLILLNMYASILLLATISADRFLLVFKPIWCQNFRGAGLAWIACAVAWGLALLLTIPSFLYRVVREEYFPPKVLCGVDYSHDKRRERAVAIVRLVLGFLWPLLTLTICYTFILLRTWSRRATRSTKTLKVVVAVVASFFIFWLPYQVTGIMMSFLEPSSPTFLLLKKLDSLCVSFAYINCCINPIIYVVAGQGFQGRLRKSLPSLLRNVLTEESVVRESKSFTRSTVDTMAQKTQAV
Procedure, shortened: (§1)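 Live CHO-K1 cells expressing β-galactosidase fragments fused to β-arrestin and C5aR1; recruitment is read by fragment complementation. In agonist mode compounds are tested alone; in antagonist mode they compete against recombinant hC5a at EC90. IC50 reported in binned ranges.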

[2] = target: T1, complement C5a receptor 1 (C5aR1); assay: β-arrestin recruitment via C5aR1 activation in live CHO-K1 cells (PathHunter), antagonist mode; type: cell-based; settings: antagonist mode; recombinant hC5a (EC90) as competing natural agonist; live CHO-K1 cells; read-out: [Antagonist] B-arrestin2 recruitment: Average IC50
Procedure, shortened: as §1

SMILES	[Agonist] B-arrestin2 recruitment: Average EC50 (nM) [1]	IC50 [2] [nM]	[Agonist] B-arrestin2 recruitment: Average EC50 (nM) ([1]; at 10 μM)
Cc1cnc2cc([C@H]3CC[C@H](c4c(C)cccc4F)C3)c(=O)n(Cc3ncccc3OC(F)F)c2n1 [175C, 5-((3-(Difluoromethoxy)pyridin-2-yl)methyl)-7-((1S,3S)-3-(2-fluoro-6-methylphenyl)cyclopentyl)-3-methylpyrido[2,3-b]pyrazin-6(5H)-one]	Non-Active	< 500	
Cc1cnc2cc([C@@H]3CC[C@@H](c4c(C)cccc4F)C3)c(=O)n(Cc3ncccc3OC(F)F)c2n1 [175D, 5-((3-(Difluoromethoxy)pyridin-2-yl)methyl)-7-((1R,3R)-3-(2-fluoro-6-methylphenyl)cyclopentyl)-3-methylpyrido[2,3-b]pyrazin-6(5H)-one]		500 to 5000	Non-Active at 10 μM
Cc1cnc2cc([C@H]3CC[C@@H](c4c(C)cccc4F)C3)c(=O)n(Cc3ncccc3C(F)F)c2n1 [187A, 5-((3-(Difluoromethyl)pyridin-2-yl)methyl)-7-((1S,3R)-3-(2-fluoro-6-methylphenyl)cyclopentyl)-3-methylpyrido[2,3-b]pyrazin-6(5H)-one]		< 500	Non-Active at 10 μM
Cc1cnc2cc([C@H]3CC[C@H](c4c(C)cccc4F)C3)c(=O)n(Cc3ncccc3C(F)F)c2n1 [187B, 5-((3-(Difluoromethyl)pyridin-2-yl)methyl)-7-((1S,3S)-3-(2-fluoro-6-methylphenyl)cyclopentyl)-3-methylpyrido[2,3-b]pyrazin-6(5H)-one]		< 500	Non-Active at 10 μM
Cc1cnc2cc([C@@H]3CC[C@H](c4c(C)cccc4F)C3)c(=O)n(Cc3ncccc3C(F)F)c2n1 [187C, 5-((3-(Difluoromethyl)pyridin-2-yl)methyl)-7-((1R,3S)-3-(2-fluoro-6-methylphenyl)cyclopentyl)-3-methylpyrido[2,3-b]pyrazin-6(5H)-one]		< 500	Non-Active at 10 μM
Cc1cnc2cc([C@@H]3CC[C@@H](c4c(C)cccc4F)C3)c(=O)n(Cc3ncccc3C(F)F)c2n1 [187D, 5-((3-(Difluoromethyl)pyridin-2-yl)methyl)-7-((1R,3R)-3-(2-fluoro-6-methylphenyl)cyclopentyl)-3-methylpyrido[2,3-b]pyrazin-6(5H)-one]		500 to 5000	Non-Active at 10 μM
Cc1cnc2cc([C@H]3CC[C@@H](c4c(C)cccc4F)C3)c(=O)n(Cc3nccnc3C(F)(F)F)c2n1 [197A, 7-((1S,3R)-3-(2-Fluoro-6-methylphenyl)cyclopentyl)-3-methyl-5-((3-(trifluoromethyl)pyrazin-2-yl)methyl)pyrido[2,3-b]pyrazin-6(5H)-one]		< 500	Non-Active at 10 μM
Cc1cnc2cc([C@H]3CC[C@H](c4c(C)cccc4F)C3)c(=O)n(Cc3nccnc3C(F)(F)F)c2n1 [197B, 7-((1S,3S)-3-(2-Fluoro-6-methylphenyl)cyclopentyl)-3-methyl-5-((3-(trifluoromethyl)pyrazin-2-yl)methyl)pyrido[2,3-b]pyrazin-6(5H)-one]		500 to 5000	Non-Active at 10 μM
Cc1cnc2cc([C@@H]3CC[C@H](c4c(C)cccc4F)C3)c(=O)n(Cc3nccnc3C(F)(F)F)c2n1 [197C, 7-((1R,3S)-3-(2-Fluoro-6-methylphenyl)cyclopentyl)-3-methyl-5-((3-(trifluoromethyl)pyrazin-2-yl)methyl)pyrido[2,3-b]pyrazin-6(5H)-one]		5000 to 100000	Non-Active at 10 μM
Cc1cnc2cc([C@@H]3CC[C@@H](c4c(C)cccc4F)C3)c(=O)n(Cc3nccnc3C(F)(F)F)c2n1 [197D, 7-((1R,3R)-3-(2-Fluoro-6-methylphenyl)cyclopentyl)-3-methyl-5-((3-(trifluoromethyl)pyrazin-2-yl)methyl)pyrido[2,3-b]pyrazin-6(5H)-one]	Non-Active	< 500	
